≈ marks a conversion by molar mass, not a printed value.
Key:
[1] = test system: Talaromyces marneffei; test: Antifungal activity against Talaromyces marneffei assessed as growth inhibition at […] to […] ug/ml after 3 to 4 days by agar well diffusion method; assay type: functional
[2] = test system: Aspergillus fumigatus; test: Antifungal activity against Aspergillus fumigatus NCIM 902 assessed as growth inhibition at […] to […] ug/ml after 3 to 4 days by agar well diffusion method; assay type: functional
[3] = test system: Aspergillus flavus; test: Antifungal activity against Aspergillus flavus NCIM 524 assessed as growth inhibition at […] to […] ug/ml after 3 to 4 days by agar well diffusion method; assay type: functional
[4] = test system: Candida albicans; test: Antifungal activity against Candida albicans assessed as growth inhibition after 3 to 4 days by serial plate dilution method; assay type: functional
[5] = test system: Trichophyton mentagrophytes; test: Antifungal activity against Trichophyton mentagrophytes assessed as growth inhibition after 3 to 4 days by serial plate dilution method; assay type: functional
[6] = test system: Talaromyces marneffei; test: Antifungal activity against Talaromyces marneffei assessed as growth inhibition after 3 to 4 days by serial plate dilution method; assay type: functional
[7] = test system: Aspergillus fumigatus; test: Antifungal activity against Aspergillus fumigatus NCIM 902 assessed as growth inhibition after 3 to 4 days by serial plate dilution method; assay type: functional
[8] = test system: Aspergillus flavus; test: Antifungal activity against Aspergillus flavus NCIM 524 assessed as growth inhibition after 3 to 4 days by serial plate dilution method; assay type: functional
[9] = test system: Streptococcus pyogenes; assay type: functional
Description: Antibacterial activity against Streptococcus pyogenes assessed as growth inhibition at 1.56 to 25 ug/ml after 3 to 4 days by agar well diffusion method

[10] = test system: Klebsiella pneumoniae; assay type: functional
Description: Antibacterial activity against Klebsiella pneumoniae assessed as growth inhibition at 1.56 to 25 ug/ml after 3 to 4 days by agar well diffusion method

[11] = test system: Pseudomonas aeruginosa; assay type: functional, ATCC 27853
Description: Antibacterial activity against Pseudomonas aeruginosa ATCC 27853 assessed as growth inhibition at 1.56 to 25 ug/ml after 3 to 4 days by agar well diffusion method

[12] = test system: Staphylococcus aureus; assay type: functional, ATCC 25923
Description: Antibacterial activity against Staphylococcus aureus ATCC 25923 assessed as growth inhibition at 1.56 to 25 ug/ml after 3 to 4 days by agar well diffusion method

[13] = test system: Streptococcus pyogenes; test: Antibacterial activity against Streptococcus pyogenes assessed as growth inhibition after 16 to 18 hr by serial plate dilution method; assay type: functional
[14] = test system: Mycolicibacterium fortuitum; test: Antitubercular activity against Mycobacterium fortuitum ATCC 19542 assessed as growth inhibition at 0.3125 to 5 ug/mL after 7 days by resazurin reduction test; assay type: functional; settings: ATCC 19542, 168 h
[15] = test system: Mycolicibacterium smegmatis; test: Antitubercular activity against Mycobacterium smegmatis ATCC 19420 assessed as growth inhibition at 0.3125 to 5 ug/mL after 7 days by resazurin reduction test; assay type: functional; settings: ATCC 19420, 168 h
[16] = test system: Mycobacterium tuberculosis; test: Antitubercular activity against Mycobacterium tuberculosis H37Rv ATCC 27294 assessed as growth inhibition at 0.3125 to 5 ug/mL after 7 days by resazurin reduction test; assay type: functional; settings: H37Rv ATCC 27294, 168 h
[17] = test system: Mycolicibacterium smegmatis; test: Antitubercular activity against Mycobacterium smegmatis ATCC 19420 assessed as growth inhibition at 1 to 100 ug/mL after 7 days by resazurin reduction test; assay type: functional; settings: ATCC 19420, 168 h
[18] = test system: Mycolicibacterium fortuitum; test: Antitubercular activity against Mycobacterium fortuitum ATCC 19542 assessed as growth inhibition at 1 to 100 ug/mL after 7 days by resazurin reduction test; assay type: functional; settings: ATCC 19542, 168 h
[19] = test system: Mycobacterium tuberculosis; test: Antitubercular activity against Mycobacterium tuberculosis H37Rv ATCC 27294 assessed as growth inhibition at 1 to 100 ug/mL after 7 days by resazurin reduction test; assay type: functional; settings: for MIC: Mycobacterium tuberculosis, H37Rv ATCC 27294, 168 h
[20] = test system: Candida albicans; test: Antifungal activity against Candida albicans assessed as growth inhibition at […] to […] ug/ml after 3 to 4 days by agar well diffusion method; assay type: functional
[21] = test system: Trichophyton mentagrophytes; test: Antifungal activity against Trichophyton mentagrophytes assessed as growth inhibition at […] to […] ug/ml after 3 to 4 days by agar well diffusion method; assay type: functional
[22] = test system: Klebsiella pneumoniae; test: Antibacterial activity against Klebsiella pneumoniae assessed as growth inhibition after 16 to 18 hr by serial plate dilution method; assay type: functional
[23] = test system: Pseudomonas aeruginosa; test: Antibacterial activity against Pseudomonas aeruginosa ATCC 27853 assessed as growth inhibition after 16 to 18 hr by serial plate dilution method; assay type: functional
[24] = test system: Escherichia coli; test: Antibacterial activity against Escherichia coli […] assessed as growth inhibition after 16 to 18 hr by serial plate dilution method; assay type: functional
[25] = test system: Staphylococcus aureus; test: Antibacterial activity against Staphylococcus aureus ATCC 25923 assessed as growth inhibition after 16 to 18 hr by serial plate dilution method; assay type: functional
[26] = test system: Escherichia coli; assay type: functional, ATCC 24922
Description: Antibacterial activity against Escherichia coli ATCC 24922 assessed as growth inhibition at 1.56 to 25 ug/ml after 3 to 4 days by agar well diffusion method

SMILES	diameter of the inhibition zone (DIZ) [1] [mm]	diameter of the inhibition zone (DIZ) [2] [mm]	diameter of the inhibition zone (DIZ) [3] [mm]	MIC [4] [µg/mL]	MIC [5] [µg/mL]	MIC [6] [µg/mL]	MIC [7] [µg/mL]	MIC [8] [µg/mL]	diameter of the inhibition zone (DIZ) [9] [mm]	diameter of the inhibition zone (DIZ) [10] [mm]	diameter of the inhibition zone (DIZ) [11] [mm]	diameter of the inhibition zone (DIZ) [12] [mm]	MIC [13] [µg/mL]	MIC [14] [µg/mL]	MIC [15] [µg/mL]	MIC [16] [µg/mL]	MIC [17] [µg/mL]	MIC [18] [µg/mL]	growth inhibition (GI) [19] [%]	MIC [19] [µg/mL]	other results
Cc1[nH]c2ccc(OC(F)(F)F)cc2c1CNC(=O)CCc1cn(C)c2ccc(Cl)cc12	<10	<10	<10	12.5 (≈ 26.9 µM)	25 (≈ 53.9 µM)	25 (≈ 53.9 µM)	25 (≈ 53.9 µM)	25 (≈ 53.9 µM)	11	16	<10	<10	12.5 (≈ 26.9 µM)	1.25 (≈ 2.69 µM)	1.25 (≈ 2.69 µM)	1.25 (≈ 2.69 µM)	1 (≈ 2.16 µM)	10 (≈ 21.6 µM)	90	1 (≈ 2.16 µM)	diameter of the inhibition zone (DIZ) [20]: 11 mm; diameter of the inhibition zone (DIZ) [21]: <10 mm; MIC [22]: 6.25 µg/mL (≈ 13.5 µM); MIC [23]: 25 µg/mL (≈ 53.9 µM); MIC [24]: 6.25 µg/mL (≈ 13.5 µM); MIC [25]: 25 µg/mL (≈ 53.9 µM); diameter of the inhibition zone (DIZ) [26]: 16 mm
Cn1cc(CCC(=O)NCc2c[nH]c3ccc(Cl)cc23)c2cc(Cl)ccc21	16	16	16	6.25 (≈ 15.6 µM)	6.25 (≈ 15.6 µM)	6.25 (≈ 15.6 µM)	6.25 (≈ 15.6 µM)	6.25 (≈ 15.6 µM)	16	16	<10	16	6.25 (≈ 15.6 µM)	10 (≈ 25 µM)	10 (≈ 25 µM)	0.625 (≈ 1.56 µM)	10 (≈ 25 µM)	10 (≈ 25 µM)	95	1 (≈ 2.5 µM)	diameter of the inhibition zone (DIZ) [20]: 16 mm; diameter of the inhibition zone (DIZ) [21]: 16 mm; MIC [22]: 6.25 µg/mL (≈ 15.6 µM); MIC [23]: 25 µg/mL (≈ 62.5 µM); MIC [24]: 6.25 µg/mL (≈ 15.6 µM); MIC [25]: 6.25 µg/mL (≈ 15.6 µM); diameter of the inhibition zone (DIZ) [26]: 16 mm
O=C(CCc1c[nH]c2ccc(Cl)cc12)NCc1c[nH]c2ccc(OC(F)(F)F)cc12	16	16	16	6.25 (≈ 14.3 µM)	6.25 (≈ 14.3 µM)	6.25 (≈ 14.3 µM)	6.25 (≈ 14.3 µM)	6.25 (≈ 14.3 µM)	11	16	16	16	12.5 (≈ 28.7 µM)	1.25 (≈ 2.87 µM)	1.25 (≈ 2.87 µM)	1.25 (≈ 2.87 µM)	1 (≈ 2.29 µM)	10 (≈ 22.9 µM)	90	1 (≈ 2.29 µM)	diameter of the inhibition zone (DIZ) [20]: 16 mm; diameter of the inhibition zone (DIZ) [21]: 16 mm; MIC [22]: 6.25 µg/mL (≈ 14.3 µM); MIC [23]: 6.25 µg/mL (≈ 14.3 µM); MIC [24]: 6.25 µg/mL (≈ 14.3 µM); MIC [25]: 6.25 µg/mL (≈ 14.3 µM); diameter of the inhibition zone (DIZ) [26]: 16 mm
Cn1cc(CCC(=O)NCc2c[nH]c3ccc(OC(F)(F)F)cc23)c2cc(Cl)ccc21	11	16	16	12.5 (≈ 27.8 µM)	25 (≈ 55.6 µM)	12.5 (≈ 27.8 µM)	6.25 (≈ 13.9 µM)	6.25 (≈ 13.9 µM)	16	16	16	16	6.25 (≈ 13.9 µM)	10 (≈ 22.2 µM)	1.25 (≈ 2.78 µM)	0.625 (≈ 1.39 µM)	1 (≈ 2.22 µM)	10 (≈ 22.2 µM)	95	1 (≈ 2.22 µM)	diameter of the inhibition zone (DIZ) [20]: 11 mm; diameter of the inhibition zone (DIZ) [21]: <10 mm; MIC [22]: 6.25 µg/mL (≈ 13.9 µM); MIC [23]: 6.25 µg/mL (≈ 13.9 µM); MIC [24]: 6.25 µg/mL (≈ 13.9 µM); MIC [25]: 6.25 µg/mL (≈ 13.9 µM); diameter of the inhibition zone (DIZ) [26]: 16 mm
Cn1cc(CCC(=O)NCCCc2c[nH]c3ccc(OC(F)(F)F)cc23)c2cc(Cl)ccc21	<10	11	11	6.25 (≈ 13.1 µM)	25 (≈ 52.3 µM)	25 (≈ 52.3 µM)	12.5 (≈ 26.2 µM)	12.5 (≈ 26.2 µM)	16	11	11	16	6.25 (≈ 13.1 µM)	10 (≈ 20.9 µM)	10 (≈ 20.9 µM)	0.625 (≈ 1.31 µM)	10 (≈ 20.9 µM)	10 (≈ 20.9 µM)	95	1 (≈ 2.09 µM)	diameter of the inhibition zone (DIZ) [20]: 16 mm; diameter of the inhibition zone (DIZ) [21]: <10 mm; MIC [22]: 12.5 µg/mL (≈ 26.2 µM); MIC [23]: 12.5 µg/mL (≈ 26.2 µM); MIC [24]: 12.5 µg/mL (≈ 26.2 µM); MIC [25]: 6.25 µg/mL (≈ 13.1 µM); diameter of the inhibition zone (DIZ) [26]: 11 mm
